# Assays:
# Experiment in all cases: relative viability (nuclei count vs DMSO), 5 days (fraction); higher = more cells survive
# [1] = compound: CC1CC(=O)N(C2=CN=C(N=C2N1C3CCCC3)NC4=C(C=C(C=C4)C(=O)NC5CCN(CC5)C)OC)C [NPK76-II-72-1] + N=C(N)NC(=N)NCCc1ccccc1 [Phenformin] (partner 250 µM)
# Procedure, shortened: (§1)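 For relative viability, nuclei counts in treated wells were divided by those in vehicle wells. Lung cancer cell lines had been pin-tool dosed in 1536-well plates the day after seeding and cultured for 5 days, then fixed and stained in one step (final 0.05% Triton X-100, 1% formaldehyde, 1 ug/ml Hoechst) and imaged at 4×. Doses were one drug alone or a fixed anchor-drug dose plus five library-drug doses (not always all listed) in √10 steps, and values are duplicate-plate medians.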
# BI-2536 + Lapatinib = compound: CC[C@@H]1C(=O)N(C)c2cnc(Nc3ccc(C(=O)NC4CCN(C)CC4)cc3OC)nc2N1C1CCCC1 [BI-2536] + CS(=O)(=O)CCNCc1ccc(-c2ccc3ncnc(Nc4ccc(OCc5cccc(F)c5)c(Cl)c4)c3c2)o1 [Lapatinib] (partner 2 µM)
# Procedure, shortened: as §1
# [2] = compound: CC1CC(=O)N(C2=CN=C(N=C2N1C3CCCC3)NC4=C(C=C(C=C4)C(=O)NC5CCN(CC5)C)OC)C [NPK76-II-72-1] + Cc1cc(Nc2cc(N3CCN(C)CC3)nc(Sc3ccc(NC(=O)C4CC4)cc3)n2)n[nH]1 [Tozasertib] (partner 0.1 µM)
# Procedure, shortened: as §1
# BI-2536 + Bortezomib = compound: CC[C@@H]1C(=O)N(C)c2cnc(Nc3ccc(C(=O)NC4CCN(C)CC4)cc3OC)nc2N1C1CCCC1 [BI-2536] + CC(C)C[C@H](NC(=O)[C@H](Cc1ccccc1)NC(=O)c1cnccn1)B(O)O [Bortezomib] (partner 0.002 µM)
# Procedure, shortened: as §1
Cell Line,relative viability ([1]; first compound 0.01 µM),relative viability ([1]; first compound 0.03162 µM),relative viability ([1]; first compound 0.1 µM),relative viability ([1]; first compound 0.3162 µM),relative viability ([1]; first compound 1 µM),relative viability (BI-2536 + Lapatinib; first compound 0.01 µM),relative viability (BI-2536 + Lapatinib; first compound 0.03162 µM),relative viability (BI-2536 + Lapatinib; first compound 0.1 µM),relative viability (BI-2536 + Lapatinib; first compound 0.3162 µM),relative viability (BI-2536 + Lapatinib; first compound 1 µM),relative viability ([2]; first compound 0.01 µM),relative viability ([2]; first compound 0.03162 µM),relative viability ([2]; first compound 0.1 µM),relative viability ([2]; first compound 0.3162 µM),relative viability ([2]; first compound 1 µM),relative viability (BI-2536 + Bortezomib; first compound 0.01 µM),relative viability (BI-2536 + Bortezomib; first compound 0.03162 µM),relative viability (BI-2536 + Bortezomib; first compound 0.1 µM),relative viability (BI-2536 + Bortezomib; first compound 0.3162 µM),relative viability (BI-2536 + Bortezomib; first compound 1 µM)
NCI-H2023,0.43,0.422,0.455,0.398,0.43,0.963,0.613,0.0796,0.0761,0.142,0.326,0.366,0.403,0.308,0.44,0.943,0.87,0.193,0.0834,0.0889
NCI-H2085,0.765,0.735,0.682,0.668,0.695,0.781,0.71,0.427,0.252,0.324,0.802,0.79,0.812,0.825,0.855,1.05,1.01,0.587,0.371,0.381
NCI-H2087,0.42,0.543,0.397,0.398,0.498,1.38,0.992,0.594,0.138,0.146,0.284,0.203,0.272,0.254,0.249,0.858,0.677,0.693,0.128,0.139
NCI-H2126,0.52,0.532,0.508,0.525,0.557,0.782,0.689,0.725,0.619,0.267,0.8,0.812,0.855,0.783,0.888,1.19,1.1,1.05,0.636,0.227
NCI-H2228,0.301,0.345,0.328,0.324,0.296,1.38,0.629,0.207,0.165,0.166,0.243,0.265,0.341,0.213,0.422,1.13,0.911,0.16,0.198,0.187
NCI-H2347,0.413,0.432,0.514,0.521,0.395,0.786,0.986,0.769,0.413,0.621,0.405,0.542,0.507,0.589,0.638,0.864,0.963,0.859,0.482,0.476
NCI-H2405,0.379,0.386,0.4,0.35,0.419,1.01,0.97,0.301,0.146,0.448,0.723,0.871,0.762,0.743,0.816,0.829,1.04,0.588,0.632,0.723
NCI-H3122,0.374,0.378,0.389,0.378,0.38,0.943,1.07,0.296,0.258,0.228,0.389,0.425,0.366,0.365,0.465,0.982,1.01,0.43,0.231,0.242
PC-3 [JPC-3],0.475,0.484,0.487,0.453,0.472,0.462,0.456,0.441,0.451,0.233,0.882,0.861,0.81,0.904,0.93,0.799,0.93,0.834,0.5,0.233
PC-14,0.562,0.462,0.585,0.585,0.628,0.323,0.408,0.342,0.0746,0.0774,0.577,0.609,0.594,0.564,0.699,0.851,0.835,0.665,0.0691,0.0558
RERF-LC-KJ,0.405,0.416,0.425,0.388,0.52,0.862,0.842,0.775,0.179,0.206,0.589,0.51,0.573,0.548,0.513,1.12,1.28,0.939,0.221,0.264
SK-LU-1,0.517,0.585,0.662,0.528,0.537,0.815,0.715,0.495,0.252,0.189,0.341,0.351,0.361,0.305,0.38,0.978,1.12,0.465,0.201,0.174
SW 1573,0.33,0.438,0.33,0.319,0.452,1.1,1.2,1.12,0.186,0.18,0.168,0.208,0.238,0.265,0.21,1.12,1.15,0.967,0.14,0.152
